Entries after “also recorded” stand apart in the source; their conditions may differ.
Columns and labels:
Format in all cases: in vivo, mouse
[1] = Tolerability observations in mice given DHA
[2] = test system: wild-type pregnant mice; test: DHA administration to wild-type pregnant mice: fetal lung surfactant (DPPC), fetal lung and brain DHA
Excerpt: The invention also provides a method for improving the amount of fetal lung surfactant in a mouse model. It appears that this is accomplished by upregulating fetal lung surfactant biosynthesis during pregnancy. This method again utilizes giving high doses of DHA which increases DHA and fetal surfactant levels in the fetal lung. Gestation in mice lasts about 19.5 days and previous reports have shown that surfactant levels in amniotic fluid are not detected until after day 16.5, equivalent to about 30 to 32 weeks gestational age in humans. Wild-type C57 mice were bred and identification of the cervical plug was used to determine the occurrence of pregnancy and gestational age. Beginning on day 9.5 of pregnancy (equivalent to about 24 weeks of gestational age in humans), mice were placed on Peptamen™ ±DHA for one week at different doses and sacrificed on day 16.5. Following sacrifice, amniotic fluid was aspirated from the amniotic sacs, and DPPC concentration determined by micro-HPTLC. In a different set of experiments, fetal lung and brain were removed, homogenized, lipids extracted with chloroform-methanol, and fatty acids transmethylated and analyzed by gas chromatography.

[3] = test system: wild-type mice; test: DHA and AA levels in plasma, red blood cells and pancreas following DHA therapy; conditions: 40 mg DHA/day
Procedure: In this Example, levels of DHA and AA in various blood components following administration of 40 mg DHA/day to mice was determined. In particular, 40 mg DHA was given to wild type mice and levels of DHA (Table 11) and AA (Table 12) were measured in plasma, red blood cells (RBC), and the pancreas. […] Accordingly, either plasma or red blood cell levels of DHA and AA (and their ratios) can be used as a diagnostic or to determine the effectiveness of treatment in the pancreas and other affected organs.

[4] = test system: CFTR−/− mice; test: Ileal villus height in CFTR−/− mice; conditions: 40 mg/day
Procedure: CF and WT mice were fed as outlined in the method section above. Ileal height, i.e., the villi height in the ileum, was measured in CF knockout animals treated with either Peptamen™ alone, Peptamen™ +40 mg per day DHA, or Wild Type (WT) animals treated with Peptamen™ alone. Animals were sacrificed at 50 days of age, ileum fixed in paraformaldehyde, and the height measured on micrographs at 100×. […] The results are outlined in FIG. 2. […] Statistically significant differences (p<0.005) were found between wild-type and CF mice as well as between CF+40 mg DHA/day and CF. There was no statistically significant difference between WT and CF+40 mg DHA/day. […]
Morphometry: For measurement of ileal villus height or pancreatic luminal diameter, multiple images were randomly taken at 200× using a Nikon Microphot-SA microscope equipped with a Diagnostic Instruments, Inc., Spot Digitizing System. […] Quantitation was performed using NIH Imaging Software. The differences between the means in the groups tested were evaluated using the Student's t-test.
Thus, the morphologic and morphometric studies utilized with the pancreas were also performed on the ileum. Tissue from the wild type and CFTR−/− mice was prepared for light microscopy and sections analyzed at 200×. […] Morphometric analysis is shown in FIG. 8, the villous height was quantitated using NIH image software and expressed as mean […]±S.D. (n=6). […]

[5] = test system: wild-type mice; test: Pancreas and ileum morphology in wild-type mice; conditions: 40 mg/day for one week
Procedure: The morphology of various organs were also studied. Sample preparation were carried out as follows: 1-2 cm of ileum adjacent to the cecum was fixed in formalin, embedded in paraffin, cut in cross-section, and stained with hematoxylin/eosin. For pancreatic analyses, 2-3 mm pieces of pancreas were fixed for 1.5 h in 2% glutaraldehyde in 0.2M cacodylate buffer. Tissue samples were then washed in 0.2M cacodylate buffer and subsequently postfixed for 1 h in 1% osmium tetroxide in 0.1 M cacodylate buffer. Tissue was embedded in epon and thick sections stained with 1% toluidine blue.
Morphometry: For measurement of ileal villus height or pancreatic luminal diameter, multiple images were randomly taken at 200× using a Nikon Microphot-SA microscope equipped with a Diagnostic Instruments, Inc., Spot Digitizing System. Images were examined in a blinded fashion by two independent observers. Quantitation was performed using NIH Imaging Software. The differences between the means in the groups tested were evaluated using the Student's t-test.

[6] = day 16.5, 20 mg/day DHA to the pregnant mouse from day 9.5

CC/C=C\C/C=C\C/C=C\C/C=C\C/C=C\C/C=C\CCC(=O)O [DHA, docosahexaenoic acid]
Diarrhea ([1]; CFTR−/− or wild-type mice, 40 mg per day of DHA): No overt diarrhea
Side effects ([1]; treated pregnant mice and their newborns, monitored for up to one month): no obvious long-term side effects; also recorded: no observed side effects
DHA in fetal brain (in words) ([2]; 10 or 20 mg DHA/day to preterm wild-type pregnant mice): significant increase in DHA in fetal brain
DPPC concentration in amniotic fluid ([2]; day 16.5, 5 mg/day DHA from day 9.5): 9.3 ± 2.6 µg/mL
DHA concentration in fetal brain ([2]; day 16.5, 10 mg/day DHA to the pregnant mouse from day 9.5): 15.6 ± 1.1 nmoles/mg protein
DPPC concentration in amniotic fluid ([2]; day 16.5, 20 mg/day DHA from day 9.5): 18.0 ± 3.6 µg/mL
DHA concentration in fetal brain [2, 6]: 28.9 ± 1.9 nmoles/mg protein
DHA concentration in fetal lung [2, 6]: 29.8 ± 5.5 nmoles/mg protein
Placental transfer ([2]; pregnant mice): readily crosses the placenta
Phospholipid-bound AA level in RBC ([3]; day 2): 10.1 nmoles/100 million cells
Phospholipid-bound AA level in pancreas ([3]; day 2): 262 nmoles per total extract
Phospholipid-bound AA level in plasma ([3]; day 2): 227 µg/mL
Phospholipid-bound DHA level in pancreas ([3]; day 2): 67.8 nmoles per total extract
Phospholipid-bound AA level in RBC ([3]; day 4): 6.2 nmoles/100 million cells
Phospholipid-bound AA level in pancreas ([3]; day 4): 139 nmoles per total extract
Phospholipid-bound AA level in plasma ([3]; day 4): 123 µg/mL
Phospholipid-bound DHA level in pancreas ([3]; day 4): 101.0 nmoles per total extract
Phospholipid-bound AA level in RBC ([3]; day 7): 3.7 nmoles/100 million cells
Phospholipid-bound AA level in pancreas ([3]; day 7): 104 nmoles per total extract
Phospholipid-bound AA level in plasma ([3]; day 7): 84 µg/mL
Phospholipid-bound DHA level in pancreas ([3]; day 7): 125 nmoles per total extract

CC/C=C\C/C=C\C/C=C\CCCCCCCC(=O)O [LNA, α-linolenic acid, reference compound]
Effect on ileal/intestinal villus height (in words) [4]: increased intestinal villi height
Effect on pancreas morphology (in words) [5]: did not produce and observable effects on pancreas morphology
Effect on pancreas morphology (in words) ([5]; listed as 18:3n-3): did not produce any observable effects on pancreas morphology

— patent US20040127567A1, “Novel methods for treating disorders in which docosahexaenoic acid (DHA) levels are affected” (Beth Israel Deaconess Medical Center, Inc., priority 1998, published 2004)
